Data as given in patent US4434162A, “Phosphonic acid ester, pharmaceutical compositions containing the same and method of using the same” (Kanebo, Ltd., priority 1982, dated 1984).
Entries after “also recorded” stand apart in the source; their conditions may differ.

Experiments:
[1] = system: dogs; assay: Increase in coronary blood flow upon intravenous administration into dogs; assay type: in vivo, dog; conditions: for Increase in coronary blood flow (Δ% ± standard error): anaesthetized dogs, intravenous (femoral vein), dose 0.1 mg/kg, circumflex branch of left coronary; for activity in increasing coronary blood flow (in words): comparison with other esters
Protocol: (b) Intravenous administration into dogs.
Increase in coronary blood flow upon intravenous administration of a test compound into dogs was tested. Compounds tested were 4-(benzothiazol-2-yl)benzylphosphonic acid ethyl isopropyl ester and, as a control, diltiazem, 4-(benzothiazol-2-yl)benzylphosphonic acid diethyl ester and 2-(benzothiazol-2-yl)-5-picolinylphosphonic acid diethyl ester.
Dogs weighing 10 to 13 kg were anaesthetized with pentobarbital sodium (35 mg/kg, intraperitoneal) and, under supportive respiration, a thoractomy was performed by removing the fourth left rib. The pericardial membrane was then incised to expose the heart. The test compound was dissolved in 50% aqueous ethanol and injected into the femoral vein. The blood flow through circumflex branch of left coronary was measured before and after the administration of drugs with an electromagnetic flowmeter (Nihon Kohden, MF-26).

[2] = system: isolated guinea pig heart; assay: Action on coronary flow of the isolated guinea pig heart (Langendorff); conditions: Cavia porcellus, 100 γ/ml in propylene glycol, 0.1 ml infused at 0.1 ml/min, read-out: Increase in coronary flow (Δ% ± standard error)
Protocol: (a) Action on the isolated guinea pig heart.
Male guinea-pigs with body weights from 400 to 500 g were slaughtered and promptly thoractomized. After the ascending aorta was cannulated, the heart was enucleated. By the method of Langendorff, this isolated heart was perfused with the Krebs-Henseleit fluid oxygenated with a gaseous mixture of 95% O2 and 5% CO2 at the fluid temperature of 34±1° C. and the perfusion pressure of 60 cm H2 O, and the test compound was infused. The coronary flows before and after infusion were measured and the percent gain in coronary flow was obtained. The coronary flow was measured with a square-wave electromagnetic flowmeter (Nihon Kohden, MF-26) with an extracorporeal probe (Nihon Kohden, FE) set at the top of the cannula and recorded with a multipurpose polygraph (Nihon Kohden, RM-85). The test compound was dissolved in propylene glycol to a concentration of 100 γ/ml and 0.1 ml of the solution was infused at the rate of 0.1 ml/min. For reference, the corresponding data on diltiazem is also shown.

[3] = Acute toxicity test in mice; conditions: mouse, in vivo, ip; male ddY mice, intraperitoneal; deaths within 72 hours, method of Weil
Protocol: (§1) An acute toxicity test was carried out in male ddY mice (in groups of 5 animals, body weights 20.congruent.2 g) by the intraperitoneal administration of a test compound. The LD50 values were calculated by the method of Weil based on the number of deaths within 72 hours.

[4] = system: male ddY mice; assay: Acute toxicity test in mice; conditions: mouse, in vivo; listed as compound of the invention
Protocol: as §1

SMILES: CCOP(=O)(Cc1ccc(-c2nc3ccccc3s2)nc1)OCC [2-(benzothiazol-2-yl)-5-picolinylphosphonic acid diethyl ester, reference compound]
- Increase in coronary blood flow (Δ% ± standard error) [1]: 83.0 ± 12.3 Δ%

SMILES: CCOP(=O)(Cc1ccc(-c2nc3ccccc3s2)cc1)OCC [4-(benzothiazol-2-yl)benzylphosphonic acid diethyl ester, reference compound]
- Increase in coronary blood flow (Δ% ± standard error) [1]: 82.2 ± 5.0 Δ%

SMILES: CCOP(=O)(Cc1ccc(-c2nc3ccccc3s2)cc1)OC(C)C (centres unmarked) [4-(benzothiazol-2-yl)benzylphosphonic acid isopropyl ethyl ester]
- activation at 100 µg/mL, 0.01 mg [2]: 76.9 ± 24.4%
- Increase in coronary blood flow (Δ% ± standard error) [1]: 75.3 ± 2.9 Δ%
- activity in increasing coronary blood flow (in words) ([1]; listed as asymmetric type ester of the invention): high activity in increasing coronary blood flow in comparison with other asymmetric and cyclic esters of this type
- activity in increasing coronary blood flow (in words) ([1]; listed as compound of the invention): somewhat lower in its activity of increasing coronary blood flow than the corresponding diethyl ester compound
- LD50 at 72 h [3]: 1790 mg/kg
- acute toxicity (in words) [4]: low acute toxicity; also recorded: lower acute toxicity than such compound

SMILES: COc1ccc([C@@H]2Sc3ccccc3N(CCN(C)C)C(=O)[C@@H]2OC(C)=O)cc1 [Diltiazem, diltiazem, reference compound]
- activation at 100 µg/mL, 0.01 mg [2]: 66 ± 7.1%
- Increase in coronary blood flow (Δ% ± standard error) [1]: 105.6 ± 14.1 Δ%
- LD50 at 72 h [3]: 177 mg/kg
